In patent US8318809B2, “Compositions and methods for treating jellyfish stings” (priority 2006, dated 2012):
Structures can show the parent of a compound that is named as a salt.

What was measured:
[1] = system: sea wasp (Chiropsalmus quadumanus) stings; assay: Jellyfish sting test on inner forearm of human test subjects, sea wasp; format: in vivo; conditions: for maintenance of relief: 5% lidocaine in 80:20 water:propylene glycol, 5% benzocaine in 90:10 propylene glycol:acetone, control sites decreased after 2-3 h; for red rash at sting site: 5% lidocaine or 5% benzocaine formulations vs other treatments; for time to sting relief: 10% lidocaine in 50:50 water:propylene glycol, 10% benzocaine in 90:10 propylene glycol:acetone
Excerpt: These are the two most common types of stinging jellies that occur with frequency and/or regularity in normal swimming waters on the USA east coast north of Cape Canaveral.
(§1) Living healthy specimens were captured locally using trawls and dip-nets. They were maintained in flowing seawater aquariums (ca. 500 liters) for days-weeks; sea nettles maintained for long periods were fed live minnows (mummichugs).
Healthy, actively swimming jellyfish were used in all examples, and the same procedure was applied in all cases.
Stings from sea wasps were induced by manually holding a live specimen by its bell, and dragging the tentacles across the inner forearm of the test subject. […] Stings from the larger sea nettles were induced using tweezers to manually remove tentacles from living specimens and dragging them across the inner lower forearms of test subjects.
(§2) Products were applied to sting sites within 1-2 minutes unless otherwise noted below. […] Thus one forearm was used for each treatment effect, and each forearm included two sting sites: one received a treatment while the other served as an untreated control. Tests were either conducted simultaneously in duplicate using two subjects, or sequentially several hours apart using the same subject.

tongue = assay: Minimum response time to topically applied anesthetic on the tongue; format: in vivo, human; conditions: Example 5; 5 mg of pure compound applied to the tongue
Method: Two formulations were tested in the present example to test the minimum response time of the human body to topically applied lidocaine and benzocaine:
5 mg of pure benzocaine applied to the tongue

Solubility in water = format: physicochemical; conditions: Example 13 remark
[2] = stated as known; cited from earlier work
jellyfish stings [3] = assay: Jellyfish sting test, jellyfish species not stated; format: in vivo, human; conditions: Example 20; 4% lidocaine hydrochloride in water
Excerpt: […] Healthy, actively swimming jellyfish were used in all examples, and the same procedure was applied in all cases. The same human test subjects were used in all experiments, in order to have continuity and be able to qualitatively compare treatment effects among experimental dates.
(§3) Stings from sea wasps were induced by manually holding a live specimen by its bell, and dragging the tentacles across the inner forearm of the test subject. Sea-wasps caused immediate stinging sensations. Stings from the larger sea nettles were induced using tweezers to manually remove tentacles from living specimens and dragging them across the inner lower forearms of test subjects. Sea-nettle stings were of the same or somewhat more intensity as those of sea wasps, but were not felt until about 15 s after contact, perhaps because the tentacles have visibly thicker gelatinous coatings.
as §2

[4] = system: sea nettle (hrysaora quinquecirrha) stings; assay: Jellyfish sting test on inner forearm of human test subjects, sea nettle; format: in vivo
Excerpt: Two genera of jellyfish were used in examples 2-19 described below: Chiropsalmus quadumanus, a cubomedusa and member of the Scyphozoa, also known as the sea wasp; and another scyphozoan jellyfish, hrysaora quinquecirrha, commonly called the sea nettle. These are the two most common types of stinging jellies that occur with frequency and/or regularity in normal swimming waters on the USA east coast north of Cape Canaveral.
as §1
For examples 3-19, with the exception of the commercially available spray products and the meat tenderizer paste solution, all of the other test solutions were in liquid form and were applied using a one milliliter pipetter and sterile tips.
For examples 3-19 below, the following general procedures were followed. Healthy, actively swimming jellyfish were used in all examples, and the same procedure was applied in all cases. The same human test subjects were used in all experiments, in order to have continuity and be able to qualitatively compare treatment effects among experimental dates.
as §3
Products were applied to sting sites within 1-2 minutes unless otherwise noted below. […] Thus one forearm was used for each treatment effect, and each forearm included two sting sites: one received a treatment while the other served as an untreated control. […]

jellyfish stings [5] = assay: Beach surveys of beachgoers stung by a jellyfish; format: in vivo, human
Method: The beach surveys were conducted on beachgoers that stated they had been stung by a jellyfish. All participants voluntarily filled out an 8 question survey.
Locations: Tybee Island, Ga., Saint Simons Island, Ga., Hilton Head, S.C., Jacksonville beach, Fla., Daytona beach, Fla.
Time to application: Varied based on the person surveyed. Average times from sting to treatment ranged from 5 to 15 minutes.
Application to relief: Most respondents noted that they began to feel relief at the 1 minute mark. Based on an average level of affected area (less than 10% body coverage) the respondents noted virtually all the pain subsided by the 5 minute mark. (Most of the respondents who noted “some relief” departed within 2 minutes, which is the approximately time it took them to fill out the survey. Some of these respondents later returned to report total relief, but this is not shown in the data below). The results are presented in Table 3 and FIG. 2, below (total respondents: 232).

chigger bites = assay: Chigger bite treatment, one subject; format: in vivo, human; conditions: Example 22; two bites per treatment; lidocaine as 4% solution in water
Excerpt: Subject received 6 chigger bites on inner thigh area. Subject applied the formulation to two of the chigger bites, treated two others with Chigger Rid®, a drug store product, and applied clear finger nail polish, a home remedy, to the final two bites.

fire ant bites = assay: Fire ant bite treatment, one subject; format: in vivo, human; conditions: Example 23
Method: The subject for this example had substantial experience with fire ant bites, with general symptoms of blistering, itching, pain associated with the bites. […] Subject received 7 fire ant bites while gardening outside. Subject applied the formulation to the seven bites approximately 15 minutes after the bites occurred.

[6] = system: nematocysts of sea nettle tentacles; assay: Microscopy observations of nematocyst responses to product exposure; conditions: Example 11; pipetted onto tentacles in seawater, viewed at 60×; lidocaine as 10% solution in seawater
Excerpt: Tentacles were removed using tweezers from an actively swimming sea nettle, placed in a glass Petri dish in seawater collected from the jellyfish tank (same salinity), and viewed at 60× under a zoom stereomicroscope while various liquid chemicals were pipetted directly onto the tentacles.

[7] = 4% Lidocaine and water, pump or trigger spray, total respondents 232

Structure (SMILES): N [Ammonia]
- treatment effect on sting pain ([1]; Example 3, sea wasps 2″ bell, meat tenderizer paste, ammonia and vinegar store-bought full strength, vs untreated control site): increased the initial pain

Structure (SMILES): CCOC(=O)c1ccc(N)cc1 [benzocaine]
- maintenance of relief ([1]; Example 3): maintained until the stinging sensation eventually decreased in control sites
- red rash at sting site ([1]; Example 3, sea wasps 2″ bell): substantially reduced
- time to sting relief ([1]; Example 4, sea wasp 3″ bell): 60 to 90 s
- onset of localized numbness (tongue): 30 s
- dissolves in water (Solubility in water): does not dissolve in water
- solubility in water [2]: sparingly soluble in water

Structure (SMILES): CCN(CC)CC(=O)Nc1c(C)cccc1C [lidocaine hydrochloride]
- time to initial pain relief after application (jellyfish stings [3]): around one

Structure (SMILES): CCN(CC)CC(=O)Nc1c(C)cccc1C [lidocaine]
- maintenance of relief ([1]; Example 3): maintained until the stinging sensation eventually decreased in control sites
- red rash at sting site ([1]; Example 3, sea wasps 2″ bell): substantially reduced
- redness at the sting site ([1]; Example 4, 10% lidocaine formulation compared with 10% benzocaine formulation): appeared to reduce redness at the sting site more than the benzocaine formulation
- time to sting relief ([1]; Example 4, sea wasp 3″ bell): 30 to 60 s
- rash ([1]; Example 6, 10% compared to 5% lidocaine in 80:20 water:propylene glycol): somewhat less pronounced
- pain relief ([1]; Example 6, both 5% and 10% lidocaine in 80:20 water:propylene glycol, sea wasp 3″ bell, compared to no treatment): substantial pain relief
- time to substantial relief ([1]; Example 7, 10% lidocaine in 80:20 water:propylene glycol without acetic acid, sea wasps 2″ bell, untreated stinging lasted about 30 minutes): about 1 minute
- relief after delayed application ([1]; Example 8, 10% lidocaine in 80:20 water:propylene glycol applied 5 min after sting): provided relief as though applied immediately
- time to relief ([1]; Example 8, 10% lidocaine in 80:20 water:propylene glycol applied immediately, sea wasp 2″ bell): approximately 1 minute
- performance as judged by the test subjects ([4]; Example 9, 10% lidocaine in water only compared with 10% lidocaine in 80:20 water:propylene glycol, sea nettle 6″ bell): slightly superior
- acted faster by ([4]; Example 16, 15% lidocaine in water compared with 10% lidocaine in water, sea nettle 4″ bell): 10 to 15 s
- onset of localized numbness (tongue): 30 s
- time at which most respondents began to feel relief (jellyfish stings [5]; 4% Lidocaine and water spray, 5 to 15 minutes from sting to treatment): 1 min
- time by which virtually all the pain subsided (jellyfish stings [5]; 4% Lidocaine and water spray, affected area less than 10% body coverage): ≤ 5 min
- number of respondents: Much relief (jellyfish stings [5]; [7]): 128
- number of respondents: No relief (jellyfish stings [5]; [7]): 0
- number of respondents: Some relief (jellyfish stings [5]; [7]): 32
- number of respondents: Total relief (jellyfish stings [5]; [7]): 72
- itching of chigger bites after treatment (chigger bites): ceased itching within minutes of application with no further symptoms
- blister formation (fire ant bites; 4% lidocaine and water applied approximately 15 minutes after the bites): typical blisters did not form
- relief from pain and itching (fire ant bites; 4% lidocaine and water applied to 7 bites approximately 15 minutes after the bites): complete relief from pain and itching
- nematocyst firing [6]: did not cause nematocysts from a new tentacle to fire

Structure (SMILES): NC(N)=O [urea]
- effect on the soothing effect of lidocaine ([4]; Example 12, 10% urea added to 10% lidocaine in water): did not appear to help or impede
